From the supplement of paper PMC10307832

How the values were obtained:
Test in all cases: relative viability (nuclei count vs DMSO), 5 days (fraction); higher = more cells survive
[1] = compound: C[C@]12O[C@H](C[C@]1(O)CO)n1c3ccccc3c3c4c(c5c6ccccc6n2c5c31)CNC4=O [Lestaurtinib] + CCNC(=O)c1noc(-c2cc(C(C)C)c(O)cc2O)c1-c1ccc(CN2CCOCC2)cc1 [Luminespib] (partner 0.01 µM)
In short: (§1)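 For relative viability, nuclei counts in treated wells were divided by those in vehicle wells. Lung cancer cell lines had been pin-tool dosed in 1536-well plates the day after seeding and cultured for 5 days, then fixed and stained in one step (final 0.05% Triton X-100, 1% formaldehyde, 1 ug/ml Hoechst) and imaged at 4×. Doses were one drug alone or a fixed anchor-drug dose plus five library-drug doses (not always all listed) in √10 steps, and values are duplicate-plate medians.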

[2] = compound: C[C@]12O[C@H](C[C@]1(O)CO)n1c3ccccc3c3c4c(c5c6ccccc6n2c5c31)CNC4=O [Lestaurtinib] + C[C@@H](Oc1cc(-c2cnn(C3CCNCC3)c2)cnc1N)c1c(Cl)ccc(F)c1Cl [Crizotinib] (partner 1 µM)
In short: as §1

TPCA-1 + Crizotinib = compound: C1=CC(=CC=C1C2=CC(=C(S2)NC(=O)N)C(=O)N)F [TPCA-1] + C[C@@H](Oc1cc(-c2cnn(C3CCNCC3)c2)cnc1N)c1c(Cl)ccc(F)c1Cl [Crizotinib] (partner 1 µM)
In short: as §1

[3] = compound: C[C@]12O[C@H](C[C@]1(O)CO)n1c3ccccc3c3c4c(c5c6ccccc6n2c5c31)CNC4=O [Lestaurtinib] + Nc1nc2[nH]cc(CCc3ccc(C(=O)N[C@@H](CCC(=O)O)C(=O)O)cc3)c2c(=O)[nH]1 [Pemetrexed] (partner 0.2 µM)
In short: as §1

Cell Line	relative viability ([1]; first compound 0.005 µM)	relative viability ([1]; first compound 0.01581 µM)	relative viability ([1]; first compound 0.05 µM)	relative viability ([1]; first compound 0.1581 µM)	relative viability ([1]; first compound 0.5 µM)	relative viability ([2]; first compound 0.005 µM)	relative viability ([2]; first compound 0.01581 µM)	relative viability ([2]; first compound 0.05 µM)	relative viability ([2]; first compound 0.1581 µM)	relative viability ([2]; first compound 0.5 µM)	relative viability (TPCA-1 + Crizotinib; first compound 0.04 µM)	relative viability (TPCA-1 + Crizotinib; first compound 0.1265 µM)	relative viability (TPCA-1 + Crizotinib; first compound 0.4 µM)	relative viability (TPCA-1 + Crizotinib; first compound 1.265 µM)	relative viability (TPCA-1 + Crizotinib; first compound 4 µM)	relative viability ([3]; first compound 0.005 µM)	relative viability ([3]; first compound 0.01581 µM)	relative viability ([3]; first compound 0.05 µM)	relative viability ([3]; first compound 0.1581 µM)	relative viability ([3]; first compound 0.5 µM)
201T	1.16	1.07	1.14	1.09	0.357	1.09	1.03	1.08	1.08	0.903	1.04	0.998	1.08	1.02	1.03	0.34	0.342	0.317	0.279	0.251
A549						0.77	0.771	0.227	0.183	0.0593	0.898	0.748	0.773	0.522	0.331					
A-427	1.03	0.797	0.649	0.298	0.185	0.999	0.842	0.501	0.411	0.125	0.856	0.817	1.09	0.879	0.625	0.865	1.14	0.925	0.503	0.275
ABC-1		0.323	0.445	0.331	0.178	1.15	1.58	0.92	0.882	0.26	1.38	1.05	0.957	0.733	0.569					
BEN	0.249	0.298	0.278	0.326	0.213	0.902	1.1	0.879	0.687	0.29	0.81	0.722	0.713	0.979	0.685	0.782	0.841	0.663	0.555	0.358
CAL-12T	0.484	0.52	0.556	0.256	0.06	0.555	0.747	0.409	0.487	0.272	0.597	0.588	0.675	0.717	0.381	1.13	1.11	1.17	0.834	0.635
COR-L23	0.558	0.756	0.226	0.288	0.164	0.707	0.763		0.489	0.161	0.686	0.666	0.715	0.532	0.323	0.209	0.214	0.195	0.194	0.202
COR-L 105	0.843	0.826	0.532	0.67	0.263	0.703	1.02	0.684	0.618	0.233	0.812	1.14	0.751	0.629	0.347	1.06	1.19	1.14	0.743	0.631
Calu-6						0.753	0.784	0.282	0.293	0.16	0.861	0.789	0.767	0.669	0.373					
ChaGo-K-1	0.62	0.706	0.698	0.479	0.223	1.25	1.33	0.855	0.778	0.381	1.2	1.04	1.17	0.836	0.608	0.267	0.268	0.261	0.249	0.205
EBC-1						0.182	0.225	0.183	0.184	0.175	0.206	0.175	0.201	0.195	0.222					
EKVX	0.951	0.876	0.999	0.821	0.541	0.855	1.11	0.945	0.892	0.551	0.979	0.777	1.04	0.97	0.738	0.419		0.276	0.398	0.256
EMC-BAC-2	1.15	1.33	0.806	0.434	0.323	0.722	0.76	0.599	0.569	0.264	0.737	0.836	0.788	0.755	0.663	0.452	0.429	0.488	0.352	0.308
EPLC-272H	0.196	0.235	0.184	0.241	0.133	0.939	0.65	0.458	0.574	0.581	1.02	0.93	0.868	0.888	0.58	0.308	0.349	0.452	0.189	0.0958
H3255	0.766	0.94	0.835	0.716	0.486	0.879	0.988	0.825	0.649	0.461	0.815	0.882	0.863	0.674	0.848	0.578	0.623	0.493	0.563	0.428
HARA	0.682	0.847	0.681	0.872	0.0984	1.19	1.21	0.86	0.994	0.162	0.985	0.995	1.11	1.01	0.56	0.265	0.246	0.203	0.171	0.196
HCC-15	0.365	0.552	0.341	0.294	0.157	1.04	1.01	0.595	0.628	0.291	0.833	0.81	0.831	0.798	0.563	0.244	0.227	0.229	0.195	0.138
